Here are results for two compounds from paper PMC9011347, “Small-Molecule Inhibitors Targeting Lipolysis in Human Adipocytes” (Journal of the American Chemical Society, 2022).

In one data set the target is T1, human ATGL (Homo sapiens, UniProt Q96AD5).
T1 construct: host or cells: Expi293 cells, crude lysate
T1 sequence (Q96AD5 1-504): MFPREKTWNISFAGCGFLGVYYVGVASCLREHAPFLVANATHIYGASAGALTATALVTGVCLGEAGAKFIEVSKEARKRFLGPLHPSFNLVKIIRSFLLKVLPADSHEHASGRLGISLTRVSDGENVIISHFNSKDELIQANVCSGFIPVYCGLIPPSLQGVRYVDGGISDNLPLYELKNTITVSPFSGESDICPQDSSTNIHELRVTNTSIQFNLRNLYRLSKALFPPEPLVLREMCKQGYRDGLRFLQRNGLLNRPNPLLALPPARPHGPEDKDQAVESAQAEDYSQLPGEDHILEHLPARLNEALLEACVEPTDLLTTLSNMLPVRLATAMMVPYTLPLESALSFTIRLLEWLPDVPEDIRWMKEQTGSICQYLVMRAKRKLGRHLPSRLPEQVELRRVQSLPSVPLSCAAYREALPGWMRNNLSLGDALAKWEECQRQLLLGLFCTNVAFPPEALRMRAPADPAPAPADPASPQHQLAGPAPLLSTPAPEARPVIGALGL
Further details: method as in PMID 28327588. As to conditions: cited from earlier work.

Data set [1] deals with primary human omental adipocytes. The data set can be described thus: Lipolysis in human omental adipocytes. It counts as cell-based. As to conditions: NG-497 40 µM. As to the method:
Fig. S5: Effect of NG-497 on lipolysis in human omental adipocytes. Omental preadipocytes were obtained from Zen-Bio and differentiated into adipocytes in 96-well trays according to the manufacturer's instructions (OP-F-SL, ZenBio). Cells were then labeled with [9,10-3H] oleic acid (1µCi/well) in full medium for 12 h, washed, and preincubated for 1 h with NG-497 (40 µM) or DMSO (carrier) as a control. Subsequently, the medium was replaced with DMEM containing 2% FA-free BSA and basal as well as Forskolin-stimulated release of radioactivity was monitored in the presence or absence of NG-497. After a 4 h incubation period, cells were lysed in NaOH/SDS (0.3 M/0.1%) and cell-associated radioactivity was determined by liquid scintillation.
Cell-associated radioactivity at time-point 0 (pulse) was calculated as sum of the radioactivity detected in medium and cells after the 4 h chase. The release of fatty acids is shown as % of cell-associated radioactivity.
In the presence of Forskolin, cells lost ~ 20% of the
(b) Time course of FA release during the 4 h chase period. NG-497 reduced basal lipolysis by ~50% and extinguished Forskolin-stimulated lipolysis. Data are presented as mean ± S.D (n = 4). Statistical significance was determined via ANOVA followed by Bonferroni post hoc test (***, p < 0.001).
(1 picture or pasted object on this page, not shown here)

Data set [2] in a line: Stability of NG-497 exposed to HepG2 cells. It counts as in vitro ADME. As to conditions: human, cells treated 1 h with 40 μM NG-497, inhibitor removed, DMEM 10% FCS, read-out: half-life (T1/2) when exposed to HepG2 cells. How it is done:
Figure 2 Development and characterization of the human ATGL inhibitor NG-497. (a) Structure and IC50 values of human ATGL inhibitors. (b) Dose-dependent inhibition of human ATGL by respective inhibitors. (c) ATGL activity was determined at the indicated substrate concentrations in the absence and presence of NG-497 (0.5 μM). Ki was determined by nonlinear regression analysis using GraphPad Prism. Lineweaver–Burk analysis of ATGL inhibition is shown in the inset. (d) Toxicity of NG-497 in HepG2 cells was determined after 24 h incubation at indicated concentrations. Cisplatin and DMSO were used as positive and negative controls, respectively. Cytotoxicity was determined using the Roche LDH Kit and calculated as relative LDH release compared to fully lysed cells. (e) Stability of NG-497 was analyzed via ultrahigh-performance liquid chromatography–mass spectrometry (UHPLC-MS) after incubation in human serum for 0 or 3 h at 37 °C. Atglistatin and a chemically related unstable compound were used as controls. […] NG-497 concentrations/well were determined at the indicated time points using UHPLC-MS. […] Statistical significance was determined via t test (*p < 0.05; **p < 0.01; ***p < 0.001) or ANOVA followed by Bonferroni post hoc test (^###p < 0.001). […] The detected 297 lipid species of both groups were analyzed with supervised multivariate analysis OPLS-DA and are shown as a loading plot. […]

As for `CN(C)C(=O)Nc1cccc(-c2ccc(N(C)C)cc2)c1` [Atglistatin, reference compound], the “efficacy against human ATGL” value on human ATGL was “ineffective”.
`CCOc1ccc(-c2cc(OC)cc(C(=O)OC(C)C)n2)cc1` [NG-497]: in data set [1] (4 h), the “Forskolin-induced loss of cell-associated radiolabel (~ 20%)” value is on record as “completely prevented”. Also, in data set [1] (4 h chase), the “Forskolin-induced TAG degradation and FA release (Forskolin-stimulated lipolysis)” value is on record as “extinguished”; the “reduction of basal lipolysis” value is ~ 50%. Further, in data set [2], the half-life at 40 µM was determined as 46 min.
